One data set concerns systemic blood pressure. The data set is described as follows: First clinical studies in healthy volunteers: systemic blood pressure. The class given is in vivo, human. The settings on record: up to 4000 μg, dry powder inhaled.
Another data set has as its system plasma proteins. The data set is described as follows: Protein binding via Transil assay, human plasma. It counts as in vitro ADME. Conditions: plasma. The text has this:
The distribution of a test substance between Transil® (phosphatidylcholine lipid bilayers immobilized on silica beads) and plasma is a characteristic feature of any pharmaceutical compound and is dependent on its extent of binding to plasma proteins. By comparing the distribution between Transil® and buffer with the distribution between Transil® and plasma of any species of interest, the unbound fraction in the plasma of the respective animal species can be calculated in vitro. The respective plasma and buffer concentrations were determined via a radioactivity analysis. A detailed description of the method and its validation was published by Schuhmacher et al. (2).

The nature of data set [1]: Thermal stability of the solid (90° C., 7 days, HPLC peak areas). The class given is physicochemical. How it is done: 0.3 mg of the test compound, e.g. comparative example 11 were solved in 0.1 ml dimethylsulfoxide and 0.4 ml acetonitrile. Then 1.0 ml water was added. For complete dissolution the HPLC vial was shaken and sonicated. This solution was immediately analyzed by HPLC (reference at t0). 0.3 mg of the test compound was weighed into another HPLC vial. The vial was capped and stored for 7 days in a heating block at 90° C.
After this time the vial was decapped and 0.1 ml dimethylsulfoxide and 0.4 ml acetonitrile were added to the stressed compound. Then 1.0 ml water was added. For complete dissolution the HPLC vial was shaken and sonicated. The sample was analyzed by HPLC (sample after 1 week). The peak areas in percentage are used for quantification.

The next data set relates to PAH minipig model. The data set is described as follows: Deposited lung dose (absorbing filters) in PAH minipig model and prediction of human dose and duration of effect. It counts as in vivo, Göttingen minipig. As to the method: The anesthetized thromboxane A2 challenged PAH-minipig model (see experimental part C-2.1) is considered to be the most relevant and sensitive model for the prediction of the human minimal effective and effective doses (MED, ED). To determine effective LDs, experiments in minipigs were repeated with the difference that absorbing filters were attached at the end of the tubes to determine the deposited lung dose. […] Assuming a minimal effective ND of 3 μg/kg (5% reduction in PAP) the minimal effective deposited LD is considered as 0.15 μg/kg (see FIG. 1).
The resulting lung deposited doses in the minipig of 0.15, 0.5, 1.5 and 5 μg/kg were multiplied by 60 kg to achieve the lung dose in humans. Thus, the FPD reflecting the PAP reduction for a 60 kg human are calculated to be 9, 30, 90 and 300 μg.
Thus, via a direct up-scaling from minipig, the predictive MED (5% PAP reduction) for a human based on a 60 kg body weight is calculated to be 9 μg LDD, not considering protein binding within the respiratory tract. As a surrogate for unbound concentrations, which are the likely active concentrations in the lung, we considered respective differences in fractions unbound in plasma of minipig and human. This consideration results in a minimum effective lung dose (LD) for a 60 kg participant of 41 μg LDD for the assumed 5% reduction on PAP. Consequently, the predictive minimal human effective dose is in the range from 9 μg LDD to 41 μg LDD based on a 60 kg body weight (see FIG. 2).
This translation was also conducted for effective doses (effective PAP reduction>five up to 35 percent for longer time periods up to the complete observation period of 4 hrs) based on the relative lung deposited doses in minipigs as listed in Table 2.
For DPI products, it is assumed that the fine particle dose (FPD) is basically equivalent to the human lung deposited dose.
With respect to a prediction of the duration of action for human studies comparative example 11 was compared in the PAH minipig model after inhaled application to Ventavis® (=Iloprost, 10 μg/kg nominal dose), which we used as a clinical reference. […] Therefore the duration of action is more than 6 times longer compared to Ventavis in this preclinical animal model.
In order to generate a human dose estimate, experiments in the PAH minipig model for comparative example 11 were repeated with the difference that absorbing filters were attached at the end of the tubes to determine the deposited lung dose. […] The arithmetic mean of the aerosol fraction deposited on the filters is 5% based on all results of the filter experiments, resulting in relative lung deposited doses of about 0.15 μg/kg (3 μg/kg nominal dose), 0.5 μg/kg (10 μg/kg nominal dose), 1.5 μg/kg (30 μg/kg nominal dose) and 5 μg/kg (100 μg/kg nominal dose). Assuming a minimal effective nominal dose of 3 μg/kg for a 5% reduction in PAP and a mean nebulization efficiency of 5%, the minimal effective deposited lung dose is considered as 0.15 μg/kg based on the PAH minipig model. Therefore, for a human patient of 60 kg body weight a minimal effective lung deposited dose of 9-41 μg, depending on whether or not an effect of different protein binding (see table 2.1.5) is postulated. Considering 100 μg/kg as effective dose in the minipig model, 300-1370 μg lung deposited dose is postulated as effective dose, again depending on the consideration of different interspecies protein binding.

For data set [2], the system named is unilateral broncho-occlusion in anesthetized minipigs. Put plainly: Unilateral broncho-occlusion minipig model: arterial oxygenation as proxy of VQ-mismatch, intrapulmonary selectivity (C-2.3). The class given is in vivo. Conditions: for % decrease delta PAP (maximal hypoxic PAP) / % increase AUCSaO2 (unwanted desaturation effect): mean, n = 4. How it is done: These effects were more pronounced 90 min after inhalation of comparative example 11 (second intervention cycles (inhal)). […] Thus, the mean % changes in maximal hypoxic PAP and associated % changes in area under the oxygen saturation curve [AUCSaO2] were compared (see FIG. 65) within the respective group. As reference cycles in each group, we used cycle 3 for the inhaled applications as well as cycle 4 for the i.v. applications.

Setting [3] is: minipig 0.15 μg/kg lung deposited (3 μg/kg nominal dose).
Setting [4] is: minipig 0.50 μg/kg lung deposited (10 μg/kg nominal dose).
[5] abbreviates: minipig 1.5 μg/kg lung deposited (30 μg/kg nominal dose).
Where [6] appears, read: minipig 5.0 μg/kg lung deposited (100 μg/kg nominal dose).

Each structure is given as a SMILES string.

For `O=C(O)c1ccc(CCN(CCc2ccccc2OCc2ccc(-c3ccc(C(F)(F)F)cc3)cc2Cl)[C@H]2CCCc3nc(C(=O)O)ccc32)cc1` [example 4, (5S)-{[2-(4-Carboxyphenyl)ethyl][2-(2-{[3-chloro-4′-(trifluoromethyl)biphenyl-4-yl]methoxy}phenyl)-ethyl]amino}-5,6,7,8-tetrahydroquinoline-2-carboxylic acid], in the data set with systemic blood pressure, the “effect on systemic blood pressure in healthy volunteers” value is listed as “no clinically meaningful effect on systemic blood pressure”.

For `O=C(O)c1ccc(CCN(CCc2ccccc2OCc2ccc(-c3ccc(C(F)(F)F)cc3)cc2Cl)[C@H]2CCCc3nc(C(=O)O)ccc32)cc1` [comparative example 11, (5S)-5-{[2-(4-carboxyphenyl)ethyl][2-(2-{[3-chloro-4′-(trifluoromethyl)[biphenyl]-4-yl]methoxy}phenyl)ethyl]amino}-5,6,7,8-tetrahydroquinoline-2-carboxylic acid], the “ratio of fraction unbound minipig/human” value with plasma proteins amounted to 4.55. In addition, the thermal stability entry in data set [1] is recorded as “stable”. In addition, the “minimal effective deposited lung dose” value in the data set with PAH minipig model (5% reduction in PAP, mean nebulization efficiency 5%, minipig) is 0.15 µg/kg. Also, the “minimal effective nominal dose (MED)” value in the data set with PAH minipig model (5% reduction in PAP, nebulized liquid solution, minipig) is 3 µg/kg. Moreover, the “predictive minimal human effective lung deposited dose” value with PAH minipig model (60 kg body weight, 5% PAP reduction, without/with protein binding difference) is 9 to 41 µg. The “effective lung deposited doses in humans expected from minipig data” value in the data set with PAH minipig model (60 kg human) is 9 to 1370 µg. For the same compound, the “supposed duration of action in humans” value in the data set with PAH minipig model (assumption that duration is comparable between PAH minipig model and humans) is “at least 6 hours”. Also, the “lung deposited dose postulated as effective dose in humans” value with PAH minipig model (considering 100 μg/kg as effective dose in the minipig model, 60 kg) is 300 to 1370 µg. Besides, the “Total lung deposited dose in a 60 kg human, interspecies difference in protein binding considered” value is 41 µg in the data set with PAH minipig model (setting [3]), 137 µg in the data set on PAH minipig model (setting [4]), 410 µg in the data set with PAH minipig model (setting [5]) and 1370 µg with PAH minipig model (setting [6]). In addition, the “Total lung deposited dose in a 60 kg human, interspecies difference in protein binding not considered” value with PAH minipig model (setting [3]) was 9 µg; in the data set on PAH minipig model (setting [4]), 30 µg; in the data set on PAH minipig model (setting [5]), 90 µg; with PAH minipig model (setting [6]), 300 µg. For the same compound, the “highest effective dose in the minipig model without systemic side effects (BP reduction)” value in the data set with PAH minipig model (nominal dose, inhaled) is 100 µg/kg. The “time of maximal effects after inhalation” value in data set [2] (100 μg/kg nominal dose inhaled) was 90 min. Further, the “% decrease delta PAP (maximal hypoxic PAP)” value in data set [2] (Inhalation I, Cycle 5) was 1.8%; in data set [2] (Inhalation II, Cycle 6) it was −19.6%; in data set [2] (iv Bolus 30 μg), −23.8%; in data set [2] (iv Bolus 100 μg) it was −14.3%. Further, the “% increase AUCSaO2 (unwanted desaturation effect)” value is on record as −18.6% in data set [2] (Inhalation I, Cycle 5); −39.4% in data set [2] (Inhalation II, Cycle 6); 48.1% in data set [2] (iv Bolus 30 μg); 282.8% in data set [2] (iv Bolus 100 μg). Further, the “hypoxia-induced increases in mean pulmonary artery pressure (mPAP)” value in data set [2] (after inhaled (cycle 6) as well as i.v. application (cycles 7 and 8)) was “effectively reduced”. The BP entry in data set [2] (i.v. application, 30 μg/kg and 100 μg/kg) is recorded as “expected drop in BP”. Moreover, the “desaturation area (AUCSaO2)” value in data set [2] (inhaled application, 100 μg/kg nominal dose) is reported as “did not increase desaturation area”; in data set [2] (systemic (i.v.) application, 30 and 100 μg/kg) it was “dose dependent increase in desaturation area”.

Source of the values: patent publication US12138256B2, “Treatment of cardiopulmonary disorders” (Bayer Aktiengesellschaft, priority 2021, dated 2024).
